Measurements reported in the supplement of paper PMC10307832.

What was measured:
Test in all cases: relative viability (nuclei count vs DMSO), 5 days (fraction); higher = more cells survive
COR-L 105 = test system: COR-L 105
How it was run: (§1)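 Relative viability equals treated-well nuclei counts divided by vehicle-well nuclei counts. Counts came from 4× images of lung cancer cell lines grown in 1536-well plates for 5 days after pin-tool dosing on the day after seeding. Dosing used one drug alone or a fixed anchor-drug dose plus five library-drug doses (not always all listed) in √10 steps, and values are medians of duplicate plates.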

NCI-H838 = test system: NCI-H838
How it was run: as §1

NCI-H2347 = test system: NCI-H2347
How it was run: as §1

NCI-H1915 = test system: NCI-H1915
How it was run: as §1

COR-L23 = test system: COR-L23
How it was run: as §1

NCI-H1437 = test system: NCI-H1437
How it was run: as §1

NCI-H661 = test system: NCI-H661
How it was run: as §1

NCI-H520 = test system: NCI-H520
How it was run: as §1

NCI-H2342 = test system: NCI-H2342
How it was run: as §1

NCI-H1651 = test system: NCI-H1651
How it was run: as §1

LCLC-97TM1 = test system: LCLC-97TM1
How it was run: as §1

PC-3 [JPC-3] = test system: PC-3 [JPC-3]
How it was run: as §1

NCI-H1993 = test system: NCI-H1993
How it was run: as §1

NCI-H441 = test system: NCI-H441
How it was run: as §1

CAL-12T = test system: CAL-12T
How it was run: as §1

NCI-H2009 = test system: NCI-H2009
How it was run: as §1

LXF-289 = test system: LXF-289
How it was run: as §1

A-427 = test system: A-427
How it was run: as §1

HOP-62 = test system: HOP-62
How it was run: as §1

NCI-H460 = test system: NCI-H460
How it was run: as §1

NCI-H522 = test system: NCI-H522
How it was run: as §1

NCI-H2023 = test system: NCI-H2023
How it was run: as §1

Oc1nc(-c2ccc(C(F)(F)F)cc2)nc2c1CSCC2 [XAV939] + Nc1nc2[nH]cc(CCc3ccc(C(=O)N[C@@H](CCC(=O)O)C(=O)O)cc3)c2c(=O)[nH]1 [Pemetrexed] (partner 0.2 µM)
relative viability (COR-L 105; first compound 0.08 µM): 1.09 | relative viability (COR-L 105; first compound 0.253 µM): 0.916 | relative viability (COR-L 105; first compound 0.8 µM): 1.03 | relative viability (COR-L 105; first compound 2.53 µM): 0.875 | relative viability (NCI-H838; first compound 0.08 µM): 0.252 | relative viability (NCI-H838; first compound 0.253 µM): 0.245 | relative viability (NCI-H838; first compound 0.8 µM): 0.244 | relative viability (NCI-H838; first compound 2.53 µM): 0.233 | relative viability (NCI-H2347; first compound 0.08 µM): 0.456 | relative viability (NCI-H2347; first compound 0.253 µM): 0.41 | relative viability (NCI-H2347; first compound 0.8 µM): 0.435 | relative viability (NCI-H2347; first compound 2.53 µM): 0.42 | relative viability (NCI-H1915; first compound 0.08 µM): 0.454 | relative viability (NCI-H1915; first compound 0.253 µM): 0.466 | relative viability (NCI-H1915; first compound 0.8 µM): 0.531 | relative viability (NCI-H1915; first compound 2.53 µM): 0.486 | relative viability (COR-L23; first compound 0.08 µM): 0.205 | relative viability (COR-L23; first compound 0.253 µM): 0.186 | relative viability (COR-L23; first compound 0.8 µM): 0.203 | relative viability (COR-L23; first compound 2.53 µM): 0.206 | relative viability (NCI-H1437; first compound 0.08 µM): 0.294 | relative viability (NCI-H1437; first compound 0.253 µM): 0.272 | relative viability (NCI-H1437; first compound 0.8 µM): 0.326 | relative viability (NCI-H1437; first compound 2.53 µM): 0.276 | relative viability (NCI-H661; first compound 0.08 µM): 0.947 | relative viability (NCI-H661; first compound 0.253 µM): 0.868 | relative viability (NCI-H661; first compound 0.8 µM): 0.914 | relative viability (NCI-H661; first compound 2.53 µM): 0.854 | relative viability (NCI-H520; first compound 0.08 µM): 0.757 | relative viability (NCI-H520; first compound 0.8 µM): 0.594 | relative viability (NCI-H520; first compound 2.53 µM): 0.626 | relative viability (NCI-H2342; first compound 0.08 µM): 0.784 | relative viability (NCI-H2342; first compound 0.253 µM): 0.662 | relative viability (NCI-H2342; first compound 0.8 µM): 0.719 | relative viability (NCI-H2342; first compound 2.53 µM): 0.426 | relative viability (NCI-H1651; first compound 0.08 µM): 0.576 | relative viability (NCI-H1651; first compound 0.253 µM): 0.513 | relative viability (NCI-H1651; first compound 0.8 µM): 0.545 | relative viability (NCI-H1651; first compound 2.53 µM): 0.4 | relative viability (LCLC-97TM1; first compound 0.08 µM): 0.234 | relative viability (LCLC-97TM1; first compound 0.253 µM): 0.179 | relative viability (LCLC-97TM1; first compound 2.53 µM): 0.162 | relative viability (PC-3 [JPC-3]; first compound 0.253 µM): 1.04 | relative viability (PC-3 [JPC-3]; first compound 0.8 µM): 0.946 | relative viability (PC-3 [JPC-3]; first compound 2.53 µM): 1.11 | relative viability (NCI-H1993; first compound 0.08 µM): 0.575 | relative viability (NCI-H1993; first compound 0.253 µM): 0.471 | relative viability (NCI-H1993; first compound 0.8 µM): 0.536 | relative viability (NCI-H1993; first compound 2.53 µM): 0.541 | relative viability (NCI-H441; first compound 0.08 µM): 0.243 | relative viability (NCI-H441; first compound 0.253 µM): 0.242 | relative viability (NCI-H441; first compound 0.8 µM): 0.261 | relative viability (NCI-H441; first compound 2.53 µM): 0.231 | relative viability (CAL-12T; first compound 0.08 µM): 1.2 | relative viability (CAL-12T; first compound 0.253 µM): 1.13 | relative viability (CAL-12T; first compound 0.8 µM): 1.18 | relative viability (CAL-12T; first compound 2.53 µM): 0.814 | relative viability (NCI-H2009; first compound 0.08 µM): 1.22 | relative viability (NCI-H2009; first compound 0.253 µM): 1.08 | relative viability (NCI-H2009; first compound 0.8 µM): 0.979 | relative viability (NCI-H2009; first compound 2.53 µM): 0.978 | relative viability (LXF-289; first compound 0.08 µM): 0.886 | relative viability (LXF-289; first compound 0.253 µM): 0.916 | relative viability (LXF-289; first compound 0.8 µM): 0.957 | relative viability (LXF-289; first compound 2.53 µM): 0.895 | relative viability (A-427; first compound 0.08 µM): 0.613 | relative viability (A-427; first compound 0.253 µM): 0.953 | relative viability (A-427; first compound 0.8 µM): 0.962 | relative viability (A-427; first compound 2.53 µM): 0.837 | relative viability (HOP-62; first compound 0.08 µM): 0.347 | relative viability (HOP-62; first compound 0.253 µM): 0.287 | relative viability (HOP-62; first compound 0.8 µM): 0.292 | relative viability (HOP-62; first compound 2.53 µM): 0.215 | relative viability (NCI-H460; first compound 0.08 µM): 0.0608 | relative viability (NCI-H460; first compound 0.253 µM): 0.0511 | relative viability (NCI-H460; first compound 0.8 µM): 0.07 | relative viability (NCI-H460; first compound 2.53 µM): 0.0697 | relative viability (NCI-H522; first compound 0.08 µM): 1.04 | relative viability (NCI-H522; first compound 0.253 µM): 0.88 | relative viability (NCI-H522; first compound 0.8 µM): 0.964 | relative viability (NCI-H522; first compound 2.53 µM): 0.985 | relative viability (NCI-H2023; first compound 0.08 µM): 0.279 | relative viability (NCI-H2023; first compound 0.253 µM): 0.197 | relative viability (NCI-H2023; first compound 0.8 µM): 0.208 | relative viability (NCI-H2023; first compound 2.53 µM): 0.199
